Molecules are shown by their SMILES.

For one assay, the target named is T1, GluK2 receptor (Rattus norvegicus, UniProt P42260).
T1 construct: gene Grik2; GluK2-containing receptors expressed in Xenopus oocytes
The experiment in a line: Xenopus oocyte currents, […] ShuBQX-3 in the dark; […] antagonism at […] glutamate, […] at […] glutamate. Format: cell-based. Particulars: read-out: % antagonism at 5 μM (30 μM glutamate).

For assay [1], the target named is T2, GluA1 (GluA1-containing receptors) (Rattus norvegicus, UniProt P19490).
T2 construct: gene Gria1; GluA1-containing receptors expressed in Xenopus oocytes
Put plainly: Xenopus oocyte currents, […] kainic acid, […] ShuBQX-3 in the dark ([…] antagonism). Format: cell-based.

T2 sequence (P19490 19-907): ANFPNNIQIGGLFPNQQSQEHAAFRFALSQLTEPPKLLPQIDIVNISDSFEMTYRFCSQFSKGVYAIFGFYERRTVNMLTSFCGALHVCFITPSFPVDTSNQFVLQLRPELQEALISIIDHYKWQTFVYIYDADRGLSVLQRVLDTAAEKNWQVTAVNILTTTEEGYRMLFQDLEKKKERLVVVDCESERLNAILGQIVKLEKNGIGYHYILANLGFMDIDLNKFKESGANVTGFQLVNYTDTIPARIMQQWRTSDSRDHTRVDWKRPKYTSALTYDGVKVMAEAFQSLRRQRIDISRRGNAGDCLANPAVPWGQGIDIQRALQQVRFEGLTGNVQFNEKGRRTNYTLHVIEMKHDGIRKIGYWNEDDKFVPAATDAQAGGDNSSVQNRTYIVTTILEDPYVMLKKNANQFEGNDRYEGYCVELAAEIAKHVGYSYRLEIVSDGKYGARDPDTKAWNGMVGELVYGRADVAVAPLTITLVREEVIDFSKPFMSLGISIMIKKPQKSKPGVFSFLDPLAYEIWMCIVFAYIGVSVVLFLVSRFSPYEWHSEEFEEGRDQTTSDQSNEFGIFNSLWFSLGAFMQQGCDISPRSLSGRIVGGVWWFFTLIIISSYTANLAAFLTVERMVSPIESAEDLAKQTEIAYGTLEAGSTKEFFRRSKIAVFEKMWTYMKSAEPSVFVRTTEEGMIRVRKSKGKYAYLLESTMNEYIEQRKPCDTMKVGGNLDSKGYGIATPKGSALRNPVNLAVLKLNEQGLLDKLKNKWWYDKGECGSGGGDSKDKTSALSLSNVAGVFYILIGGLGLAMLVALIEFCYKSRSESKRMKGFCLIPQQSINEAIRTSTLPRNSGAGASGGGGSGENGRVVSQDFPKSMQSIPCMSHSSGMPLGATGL
T1 sequence (P42260 32-908): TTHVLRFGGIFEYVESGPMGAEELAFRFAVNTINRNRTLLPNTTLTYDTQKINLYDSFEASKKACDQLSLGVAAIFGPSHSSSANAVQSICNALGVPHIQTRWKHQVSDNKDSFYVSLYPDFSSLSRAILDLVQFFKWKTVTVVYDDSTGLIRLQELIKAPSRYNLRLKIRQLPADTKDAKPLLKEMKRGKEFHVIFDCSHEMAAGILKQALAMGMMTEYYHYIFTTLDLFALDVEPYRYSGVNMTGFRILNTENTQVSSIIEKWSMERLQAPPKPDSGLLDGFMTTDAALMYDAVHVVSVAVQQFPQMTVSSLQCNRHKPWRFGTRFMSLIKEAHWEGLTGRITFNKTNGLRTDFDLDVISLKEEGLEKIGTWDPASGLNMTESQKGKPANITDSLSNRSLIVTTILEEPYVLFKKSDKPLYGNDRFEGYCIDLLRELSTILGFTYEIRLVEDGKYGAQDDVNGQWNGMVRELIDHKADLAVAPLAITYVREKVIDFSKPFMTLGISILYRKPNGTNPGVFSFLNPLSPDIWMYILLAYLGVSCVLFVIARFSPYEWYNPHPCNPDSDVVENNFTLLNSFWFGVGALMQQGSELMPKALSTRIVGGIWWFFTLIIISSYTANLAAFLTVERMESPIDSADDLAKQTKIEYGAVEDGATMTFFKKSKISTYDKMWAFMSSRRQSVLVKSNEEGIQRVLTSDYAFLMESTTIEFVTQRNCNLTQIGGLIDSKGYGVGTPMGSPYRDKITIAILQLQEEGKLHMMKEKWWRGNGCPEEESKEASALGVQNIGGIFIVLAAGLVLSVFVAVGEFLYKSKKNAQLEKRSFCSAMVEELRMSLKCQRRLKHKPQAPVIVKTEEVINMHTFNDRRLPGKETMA

For the molecule `O=c1[nH]c2cc(C(F)(F)F)c(/N=N/c3ccccc3)cc2n(CP(=O)(O)O)c1=O` [ShuBQX-3], the inhibition at 5 µM on GluK2 receptor is 49%; in assay [1], 85 to 93%.

(Values after paper PMC5358534, “Optical control of AMPA receptors using a photoswitchable quinoxaline-2,3-dione antagonist” (Chemical Science, 2016).)
